Laboratory results reported in patent US9212189B2, “Fluorescent probes for reactive sulfur species” (THE REGENTS OF THE UNIVERSITY OF CALIFORNIA, priority 2011, dated 2015).

Assays:
[1] = Fluorescence response of 4-azido-1,8-naphthalimide to H2S
Method: FIG. 8. Fluorescence response of 10 μM 4-azido-1,8-naphthalimide to 100 μM H2S. Data were acquired at 25° C. in 20 mM HEPES buffered to pH 7.4 with excitation at λex=470 nm. Emission was collected between 495 and 650 nm. Time points represent 0, 15, 30, 45, and 60 min (red trace) after addition of 100 μM H2S. Reactions are not complete at these time points.

[2] = Spectroscopic properties (absorbance, emission, quantum yield); assay type: physicochemical; conditions: for ε (extinction coefficient) of reaction product: at λmax; for Φ (quantum yield) of reaction product: fluorescein as standard, 20 mM HEPES pH 7.4; for λmax (absorbance) of reaction product: new absorbance band in the visible region; for λem of reaction product: product formed from 10 μM probe with 100 μM NaSH
Method: Millipore water was used to prepare all aqueous solutions. All spectroscopic measurements were performed in 20 mM HEPES buffer, pH 7.4. Fluorescence spectra were recorded on a Photon Technology International Quanta Master 4 L-format scanning spectrofluorometer (Lawrenceville, N.J.) equipped with an LPS-220B 75-W xenon lamp and power supply, A-1010B lamp housing with an integrated igniter, switchable 814 photon-counting/analog photomultiplier detection unit, and MD5020 motor driver. Samples for emission measurements were contained in 1-cm×0.1-cm quartz (1.5 mL volume, Starna, Atascadero, Calif.). Absorption spectra were recorded using a Varian Cary 50 spectrophotometer (Walnut Creek, Calif.).
FIG. 1. Absorbance spectra of (a) 10 μM SF1 (b) 10 μM SF2, and 10 μM of rhodamine products (c) tert-butoxycarbonyl-rhodamine 110 and (d) morpholinourea-rhodamine 110.
Quantum yields were determined using fluorescein as a standard according to a published method.^S3 For each compound and fluorescein, the absorbance spectra were measured within an absorbance range of 0.01 to 0.1. The quantum yield was calculated according to the equation: Φsample=Φstandard (Gradsample/Gradstandard)[…], where Φ is the quantum yield, Φstandard=0.95 in 0.1 M NaOH, Grad is the slope of the plot of […], and η is the refractive index of the solvent.

## [N-]=[N+]=Nc1ccc2c3c(cccc13)C(=O)NC2=O [4-Azido-1,8-naphthalimide]
[1]
  emission compared with SF1 and SF2: red-shifted emission

## morpholinourea-rhodamine 110 [Product from SF2]
[2]
  ε (extinction coefficient) of reaction product: 75,000 M^−1cm^−1
  Φ (quantum yield) of reaction product: 0.60
  λmax (absorbance) of reaction product: 492 nm
  λem of reaction product: 525 nm

## tert-butoxycarbonyl-rhodamine 110 [Product from SF1]
[2]
  ε (extinction coefficient) of reaction product: 61,000 M^−1cm^−1
  Φ (quantum yield) of reaction product: 0.51
  λmax (absorbance) of reaction product: 490 nm
  λem of reaction product: 525 nm
